# Legend:
# [1] = system: purple nutsedge; experiment: Test D purple nutsedge; assay type: in vivo, Cyperus rotundus; conditions: Preemergence, 0 to 100 scale
# Method in brief: (§1)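 Each weed species is planted in its own pot or compartment; preemergence doses go on the sandy loam surface within a day. The formulation is a surfactant-containing, non-phytotoxic solvent blend. Ratings come from visual comparison with untreated controls 14 to 21 days later, where 100 means complete control.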
# [2] = system: Green foxtail; experiment: Test D green foxtail; assay type: in vivo; conditions: Preemergence, 0 to 100 scale
# Method in brief: as §1
# [3] = system: Alexandergrass; experiment: Test D Alexandergrass; assay type: in vivo, Brachiaria plantaginea; conditions: Preemergence, 0 to 100 scale
# Method in brief: as §1
# [4] = system: sandbur; experiment: Test D sandbur; assay type: in vivo, Cenchrus echinatus; conditions: Preemergence, 0 to 100 scale
# Method in brief: as §1
# [5] = system: itchgrass; experiment: Test D itchgrass; assay type: in vivo, Rottboellia exaltata; conditions: Preemergence, 0 to 100 scale
# Method in brief: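 Scoring used a 0–100 visual injury scale, with 0 meaning no effect and 100 complete control, assessed 14–21 days after application alongside untreated pots. Preemergence treatments went onto sandy loam surfaces of separately potted seeds within a day of sowing.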
# [6] = system: Green foxtail; experiment: Test D green foxtail; assay type: in vivo
# Method in brief: as §1
# [7] = system: Johnson grass; experiment: Test D Johnson grass; assay type: in vivo, Sorghum halepense; conditions: Preemergence, 0 to 100 scale
# Method in brief: as §1
# [8] = system: goosegrass; experiment: Test D goosegrass; assay type: in vivo, Eleusine indica; conditions: Preemergence, 0 to 100 scale
# Method in brief: as §1
# [9] = system: surinam grass; experiment: Test D surinam grass; assay type: in vivo, Brachiaria decumbens; conditions: Preemergence, 0 to 100 scale
# Method in brief: as §1
# [10] = system: tall mallow; experiment: Test D tall mallow; assay type: in vivo, Malva sylvestris; conditions: Preemergence, 0 to 100 scale
# Method in brief: as §1
# [11] = system: dallisgrass; experiment: Test D dallisgrass; assay type: in vivo, Paspalum dilatatum; conditions: Preemergence, 0 to 100 scale
# Method in brief: as §1
# [12] = system: pitted morningglory; experiment: Test D pitted morningglory; assay type: in vivo, Ipomoea lacunosa; conditions: Preemergence, 0 to 100 scale
# Method in brief: as §1
# [13] = system: large crabgrass; experiment: Test D large crabgrass; assay type: in vivo, Digitaria sanguinalis; conditions: Preemergence, 0 to 100 scale
# Method in brief: as §1
# [14] = system: common pursiane; experiment: Test D common purslane; assay type: in vivo, Portulaca oleracea
# Method in brief: as §1
# [15] = system: common groundsel; experiment: Test D common groundsel; assay type: in vivo, Senecio vulgaris; conditions: Preemergence, 0 to 100 scale
# Method in brief: as §1
# [16] = system: Spanishneedles; experiment: Test D Spanishneedles; assay type: in vivo, Bidens bipinnata; conditions: Preemergence, 0 to 100 scale
# Method in brief: as §1
# [17] = system: guineagrass; experiment: Test D guineagrass; assay type: in vivo, Panicum maximum; conditions: Preemergence, 0 to 100 scale
# Method in brief: as §1
# [18] = Rate 16 g/ha, 0 no injury, 100 complete control
# [19] = Rate 32 g/ha, 0 no injury, 100 complete control
# [20] = Rate 64 g/ha, 0 no injury, 100 complete control
# [21] = Rate 125 g/ha, 0 no injury, 100 complete control
# [22] = Rate 16 g/ha; Preemergence; 0 to 100 scale, 0 no injury, 100 complete control
# [23] = Rate 64 g/ha, Preemergence; 0 to 100 scale, 0 no injury, 100 complete control
# [24] = Rate 125 g/ha, Preemergence; 0 to 100 scale, 0 no injury, 100 complete control
# [25] = Rate 250 g/ha; Preemergence; 0 to 100 scale
# [26] = Rate 500 g/ha, Preemergence; 0 to 100 scale
smiles,measurement,setting,value
CC(C)N(C(=O)n1oc(=O)n(C(C)C)c1=O)c1ccc(F)cc1 [Compound 131],"Plant response rating, Purple nutsedge",[1]; [18],0
same,"Plant response rating, Purple nutsedge",[1]; [19],0
same,Purple nutsedge plant response rating,[1]; [20],40
same,Purple nutsedge plant response rating,[1]; [21],60
same,"Plant response rating, Purple nutsedge",[1]; Rate 250 g/ha,85
same,"Plant response rating, Purple nutsedge",[1]; Rate 500 g/ha,85
same,"Plant response rating, Green foxtail",[2]; Rate 250 g/ha,100
same,"Plant response rating, Green foxtail",[2]; Rate 500 g/ha,100
same,"Plant response rating, Alexandergrass",[3]; [18],20
same,"Plant response rating, Alexandergrass",[3]; [19],90
same,"Plant response rating, Alexandergrass",[3]; [20],98
same,"Plant response rating, Alexandergrass",[3]; [21],100
same,"Plant response rating, Alexandergrass",[3]; Rate 250 g/ha,100
same,"Plant response rating, Alexandergrass",[3]; Rate 500 g/ha,100
same,"Plant response rating, Sandbur",[4]; [18],0
same,"Plant response rating, Sandbur",[4]; [19],60
same,Sandbur plant response rating,[4]; [20],85
same,Sandbur plant response rating,[4]; [21],100
same,"Plant response rating, Sandbur",[4]; Rate 250 g/ha,100
same,"Plant response rating, Sandbur",[4]; Rate 500 g/ha,100
same,"Plant response rating, Itchgrass",[5]; [18],30
same,"Plant response rating, Itchgrass",[5]; [19],50
same,"Plant response rating, Itchgrass",[5]; [20],90
same,"Plant response rating, Itchgrass",[5]; [21],90
same,"Plant response rating, Itchgrass",[5]; Rate 250 g/ha,100
same,"Plant response rating, Itchgrass",[5]; Rate 500 g/ha,100
same,"Plant response rating, Green foxtail","[6]; Preemergence; Rate 16 g/ha; 0 to 100 scale, 0 no injury, 100 complete control",90
same,"Plant response rating, Green foxtail","[6]; Preemergence; Rate 32 g/ha; 0 to 100 scale, 0 no injury, 100 complete control",100
same,"Plant response rating, Green foxtail",[6]; [22],90
same,Green foxtail plant response rating,[6]; [23],100
same,"Plant response rating, Green foxtail",[6]; [23],100
same,Green foxtail plant response rating,[6]; [24],100
same,"Plant response rating, Green foxtail",[6]; [24],100
same,"Plant response rating, Green foxtail",[6]; [25],100
same,"Plant response rating, Green foxtail",[6]; [26],100
same,Plant response rating Johnsongrass,[7]; [18],10
same,Plant response rating Johnsongrass,[7]; [19],40
same,Plant response rating Johnsongrass,[7]; [20],65
same,Plant response rating Johnsongrass,[7]; [21],90
same,Plant response rating Johnsongrass,[7]; Rate 250 g/ha,98
same,Plant response rating Johnsongrass,[7]; Rate 500 g/ha,100
same,"Plant response rating, Goosegrass",[8]; [18],75
same,"Plant response rating, Goosegrass",[8]; [19],98
same,"Plant response rating, Goosegrass",[8]; [20],100
same,"Plant response rating, Goosegrass",[8]; [21],100
same,"Plant response rating, Goosegrass",[8]; Rate 250 g/ha,100
same,"Plant response rating, Goosegrass",[8]; Rate 500 g/ha,100
same,"Plant response rating, Surinam grass",[9]; [18],20
same,"Plant response rating, Surinam grass",[9]; [19],75
same,Surinam grass plant response rating,[9]; [20],85
same,Surinam grass plant response rating,[9]; [21],100
same,"Plant response rating, Surinam grass",[9]; Rate 250 g/ha,100
same,"Plant response rating, Surinam grass",[9]; Rate 500 g/ha,100
same,"Plant response rating, Tall Mallow",[10]; [18],30
same,"Plant response rating, Tall Mallow",[10]; [19],30
same,Tall Mallow plant response rating,[10]; [20],80
same,Tall Mallow plant response rating,[10]; [21],80
same,"Plant response rating, Tall Mallow",[10]; Rate 250 g/ha,90
same,"Plant response rating, Tall Mallow",[10]; Rate 500 g/ha,100
same,"Plant response rating, Dallisgrass",[11]; [18],85
same,"Plant response rating, Dallisgrass",[11]; [19],95
same,"Plant response rating, Dallisgrass",[11]; [20],100
same,"Plant response rating, Dallisgrass",[11]; [21],100
same,"Plant response rating, Dallisgrass",[11]; Rate 250 g/ha,100
same,"Plant response rating, Dallisgrass",[11]; Rate 500 g/ha,100
same,"Plant response rating, P. morninglory",[12]; [18],0
same,"Plant response rating, P. morninglory",[12]; [19],0
same,"Plant response rating, P. morninglory",[12]; [20],0
same,"Plant response rating, P. morninglory",[12]; [21],50
same,"Plant response rating, P. morninglory",[12]; Rate 250 g/ha,85
same,"Plant response rating, P. morninglory",[12]; Rate 500 g/ha,100
same,Plant response rating Large crabgrass,[13]; [18],100
same,Plant response rating Large crabgrass,[13]; [19],100
same,Plant response rating Large crabgrass,[13]; [20],100
same,Plant response rating Large crabgrass,[13]; [21],100
same,Plant response rating Large crabgrass,[13]; Rate 250 g/ha,100
same,Plant response rating Large crabgrass,[13]; Rate 500 g/ha,100
same,"Plant response rating, C. purslane",[14]; [22],0
same,"Plant response rating, C. purslane","[14]; Rate 32 g/ha; Preemergence; 0 to 100 scale, 0 no injury, 100 complete control",0
same,"Plant response rating, C. purslane",[14]; [23],0
same,"Plant response rating, C. purslane",[14]; [24],0
same,"Plant response rating, C. purslane",[14]; [25],10
same,"Plant response rating, C. purslane",[14]; [26],100
same,"Plant response rating, C. purslane",[14]; Rate 500 g/ha; Preemergence; 0 to 100 scale,10
same,"Plant response rating, Com. groundsel",[15]; [18],75
same,"Plant response rating, Com. groundsel",[15]; [19],75
same,"Plant response rating, Com. groundsel",[15]; [20],85
same,"Plant response rating, Com. groundsel",[15]; [21],100
same,"Plant response rating, Com. groundsel",[15]; Rate 250 g/ha,100
same,"Plant response rating, Com. groundsel",[15]; Rate 500 g/ha,100
same,"Plant response rating, Spanishneedles",[16]; [18],0
same,"Plant response rating, Spanishneedles",[16]; [19],0
same,Spanishneedles plant response rating,[16]; [20],40
same,Spanishneedles plant response rating,[16]; [21],60
same,"Plant response rating, Spanishneedles",[16]; Rate 500 g/ha,90
same,"Plant response rating, Guineagrass",[17]; [18],0
same,"Plant response rating, Guineagrass",[17]; [19],100
same,"Plant response rating, Guineagrass",[17]; [20],100
same,"Plant response rating, Guineagrass",[17]; [21],100
same,"Plant response rating, Guineagrass",[17]; Rate 250 g/ha,100
same,"Plant response rating, Guineagrass",[17]; Rate 500 g/ha,100

# From patent US6737383B1, “Herbicidal oxadiazolidines” (priority 1999, dated 2004)
